The values that follow come from patent US20090325891A1, “Cartilage regeneration-promoting agent” (EISAI FOOD & CHEMICAL CO., LTD., priority 2006, published 2009).

Entries after “also recorded” stand apart in the source; their conditions may differ.

One series relates to proteoglycan. The series is described as follows: Image analysis of Safranin O staining (proteoglycan) of knee articular cartilage. Type of series: in vivo, rabbit. On the procedure: (§1) The rabbit articular cartilage injury model was prepared based on the method of Hashida et. al. (See, Macromolecular Bioscience, 3, (2003) 596-603), and Tamai et. al. (See, Carbohydrate Polymers, 48, (2002) 369-378, and Carbohydrate Polymers, 54, (2003) 251-262).
(§2) Initially, each animal was anesthetized by injecting pentobarbital sodium (40 mg/kg) intraperitoneally. Next, hairs at the knee joint of the left hind limb of the animal were clipped and disinfected with 0.5% chlorhexidine gluconate solution and 70% ethanol solution. Then, an incision was made on the skin on the lateral portion of the knee joint from the central part of the femur toward the tibial tuberosity. The articular capsule was exposed and incised. Further, the knee joint was exposed completely by dislocating the patella toward the medial side. Three holes of 2 mm size in diameter and 4 mm in depth were made by using a handdrill one at the medial trochlear ridge and two at the trochlear sulcus of the femur. The incised portion was washed with sterile saline solution and the articular capsule, and at the same time, the subcutaneous tissues and the skin were sutured with a synthetic absorbent thread and with nylon thread, respectively. During one week after the operation, the sutured portion of the skin was disinfected by povidone-iodine once a day and 10 mg/kg of oxytetracycline hydrochloride was subcutaneously administered twice a day.
(§3) After the formation of injury to articular cartilage, for the HT group, the product containing 20% by mass of hydroxytyrosol obtained in Production Example 1 was dissolved in tap water and administered using a water bottle at a rate of 500 mg/kg (100 mg/kg of hydroxytyrosol) per day for 21 days. After making sure that all of the water containing the drug was taken in, rabbits were fed with sterile tap water. The control was fed with sterile tap water ad libitum.
The specimens stained with Safranin O and with Alcian blue were prepared in the same way as mentioned above and subjected to image analysis. The 200 times magnified images of specimens were scanned into the computer using a digital camera (Olympus DP70, manufactured by Olympus Corporation). Then, two locations (20,000 pixels) were randomly sampled, and the density of the site stained in a specific color (site stained with Safranin O:
corresponding to proteoglycan, site stained with Alcian blue: corresponding to glycosaminoglycan) was measured. For the obtained values, Student's t-test was performed between the control group and the HT group.
(§4) In the same way as in Example 1, the cartilage regeneration-promoting effects were investigated with respect to hydroxytyrosol (100 mg/kg per day, HT group) and with respect to glucosamine hydrochloride (800 mg/kg per day, hereinafter, GAH group) for comparison. The control group was set in the same way as in Example 1.

Series [1] deals with articular cartilage injury of the knee in rabbits. The series is described as follows: Macroscopic degree of healing in rabbit articular cartilage injury model. Particulars: for Degree of healing Distal trochlear sulcus / Degree of healing Medial trochlear ridge / Degree of healing Proximal trochlear sulcus: individual rabbits, 3 weeks after operation; for average value of quantified data (degree of healing, points): − = 0 to +++ = 3 points. In kind it is in vivo. Here is the method:
The cartilage regeneration-promoting effect of hydroxytyrosol obtained in Production Example 1 was investigated using a rabbit articular cartilage injury model prepared experimentally.
Six female and six male rabbits (New Zealand white, 16 weeks old when introduced, body weight: from 2.00 kg to 2.55 kg) were habituated for one week under the conditions of one rabbit per cage, temperature: from 23° C. to 25° C., relative humidity: from 50% to 60%, a light/dark cycle of 12 h, 12 times air changes per hour). During this period, animals were fed with feed, which is sold commercially, and sterile tap water ad libitum.
After the period, rabbits were divided at random into two groups so that each group contains three female and three male rabbits. One group was designated as a control group and the other as a hydroxytyrosol administration group (hereinafter, HT group).
as §1, §2, §3
After the experimental period, all animals were euthanized by overdose using an intravenous injection of pentobarbital sodium (80 mg/kg). Then, knee joints were incised, and the conditions of joint cartilages were macroscopically observed. The degree, to which the injury of cartilage was healed, was evaluated based on the following standards.
• −: Degree of healing is less than 50% • +: Degree of healing is from 50% to 60% • ++: Degree of healing is from 60% to 80% • +++: Degree of healing is from 80% to 100%
Further, the above evaluation was assigned numbers: (−) was assigned with 0 point (+) was assigned with 1 point, (++) was assigned with 2 points, and (+++) was assigned with 3 points. The degree of healing of articular cartilage was expressed numerically, and Mann-Whitney's U test was performed between the control group and the HT group.
as §4

The nature of series [2]: Observation of general conditions and body weight. In kind it is in vivo, rabbit. On the procedure:
as §3
During the experimental period, diarrhea, appetite, and hair gloss or coat color of each rabbit were observed. In addition, body weight was measured per week.
as §4

The test system of series [3] is articular cartilage injury of the knee in rabbits. The series is described as follows: Histopathological examination (hematoxylin/eosin) of injured knee articular cartilage. Type of series: in vivo, rabbit. Particulars: hematoxylin/eosin staining. On the procedure: as §1, §2, §3
For each animal, femur was collected and fixed by a 10% neutral buffered forrnalin solution. […]

The mark [4] stands for this setting: Example 2, injured site of cartilage.
Where [5] appears, read: Example 2, HT 100 mg/kg per day, GAH 800 mg/kg per day, hydrochloride, female rabbits.
The mark [6] stands for this setting: Example 2, HT 100 mg/kg per day, GAH 800 mg/kg per day, hydrochloride, male rabbits.
The mark [7] stands for this setting: Example 1, 100 mg/kg of hydroxytyrosol per day for 21 days, 100 mg/kg.
[8] abbreviates: Example 2, HT 100 mg/kg per day, GAH 800 mg/kg per day, female rabbits.
Where [9] appears, read: Example 2, HT 100 mg/kg per day, GAH 800 mg/kg per day, male rabbits.

`Cl.N[C@H]1C(O)O[C@H](CO)[C@@H](O)[C@@H]1O` (some centres unmarked) [GAH group, glucosamine hydrochloride, reference compound]: the “density at the site stained with Safranin O (proteoglycan), injured site of cartilage, vs control” value in the series with proteoglycan (setting [4]) is reported as “significant increase”. For the same molecule, in the series with proteoglycan (Example 2), the “density at the site stained with Safranin O, normal site and growth zone of cartilage, vs control” value was “no difference”. In series [1] (Example 2, HT p<0.01, GAH p<0.05, hydrochloride), the “cartilage healing / regeneration compared with the control group” value is given as “promoted significantly”. Moreover, the “cartilage healing / regeneration compared with the control group” value in series [1] (Example 2, HT p<0.01, GAH p<0.05, listed as glucosamine hydrochloride, hydrochloride) was “promoted the regeneration of cartilage”. In series [1] (setting [5]), the “Degree of healing Distal trochlear sulcus” value is “++ (Degree of healing is from 60% to 80%); also recorded: +++ (Degree of healing is from 80% to 100%)”, the “Degree of healing Medial trochlear ridge” value is “+++ (Degree of healing is from 80% to 100%)” and the “Degree of healing Proximal trochlear sulcus” value is “++ (Degree of healing is from 60% to 80%); also recorded: +++ (Degree of healing is from 80% to 100%)”. In series [1] (setting [6]), the “Degree of healing Distal trochlear sulcus” value was “++ (Degree of healing is from 60% to 80%); also recorded: + (Degree of healing is from 50% to 60%)”, the “Degree of healing Medial trochlear ridge” value was “+++ (Degree of healing is from 80% to 100%); also recorded: ++ (Degree of healing is from 60% to 80%)” and the “Degree of healing Proximal trochlear sulcus” value is reported as “+ (Degree of healing is from 50% to 60%); also recorded: +++ (Degree of healing is from 80% to 100%)”. Further, the “average value of quantified data (degree of healing, points)” value in series [1] (Example 2, control group 5.33) was determined as 7.17. Further, in series [2] (Example 2), the “Body weight changes vs control group” value is “almost the same as that of the control group”. In addition, the general conditions result in series [2] (Example 2, HT 100 mg/kg per day, GAH 800 mg/kg per day) is given as “change in general conditions was not observed”. Further, the “histopathological findings at the site at which injury was created” value in series [3] (Example 2) is recorded as “almost the same findings as those of the HT group”.
In the case of `OCCc1ccc(O)c(O)c1` [HT group, 2-(3,4-Dihydroxyphenyl)ethanol], the “density at the site stained with Safranin O, normal site and growth zone of cartilage, vs control” value in the series on proteoglycan (Example 1) and in the series with proteoglycan (Example 2) was “no difference” throughout. The “density at the site stained with Safranin O (proteoglycan), injured site of cartilage, vs control” value is given as “significant increase” in the series with proteoglycan (Example 1, site of cartilage at which injury was created) and “significant increase” with proteoglycan (setting [4]). Besides, the “cartilage healing / regeneration compared with the control group” value is given as “promoted significantly” in series [1] (Example 1, Mann-Whitney's U test, p<0.05); “promoted the regeneration of cartilage” in series [1] (Example 1, Mann-Whitney's U test, p<0.05, listed as hydroxytyrosol); “promoted significantly” in series [1] (Example 2, HT p<0.01, GAH p<0.05); “promoted the regeneration of cartilage” in series [1] (Example 2, HT p<0.01, GAH p<0.05, listed as hydroxytyrosol). Moreover, the “Degree of healing Distal trochlear sulcus” value in series [1] (setting [7]) is “+++ (Degree of healing is from 80% to 100%); also recorded: + (Degree of healing is from 50% to 60%); also recorded: ++ (Degree of healing is from 60% to 80%)”; in series [1] (setting [8]), “+++ (Degree of healing is from 80% to 100%)”; in series [1] (setting [9]), “+++ (Degree of healing is from 80% to 100%)”. Moreover, the “Degree of healing Proximal trochlear sulcus” value in series [1] (setting [7]) was “++ (Degree of healing is from 60% to 80%); also recorded: +++ (Degree of healing is from 80% to 100%); also recorded: + (Degree of healing is from 50% to 60%)”; in series [1] (setting [8]), “+++ (Degree of healing is from 80% to 100%); also recorded: ++ (Degree of healing is from 60% to 80%)”; in series [1] (setting [9]) it was “++ (Degree of healing is from 60% to 80%); also recorded: +++ (Degree of healing is from 80% to 100%)”. Moreover, the “Degree of healing Medial trochlear ridge” value was “+++ (Degree of healing is from 80% to 100%); also recorded: ++ (Degree of healing is from 60% to 80%); also recorded: + (Degree of healing is from 50% to 60%)” in series [1] (Example 1, 100 mg/kg of hydroxytyrosol per day in drinking water for 21 days, 100 mg/kg); “+++ (Degree of healing is from 80% to 100%)” in series [1] (setting [8]); “++ (Degree of healing is from 60% to 80%); also recorded: +++ (Degree of healing is from 80% to 100%)” in series [1] (setting [9]). In addition, the “average value of quantified data (degree of healing, points)” value in series [1] (Example 1, control group 4.83) amounted to 7.17; in series [1] (Example 2, control group 5.33) it was 8.17. Besides, the “Body weight changes vs control group” value in series [2] (rabbit, in vivo) is recorded as “almost the same as that of the control group”. In addition, the “body weight change during test period vs control group” value in series [2] (rabbit, in vivo) was “significant difference was not observed”. Also, the “general conditions (diarrhea, appetite, hair gloss or coat color)” value in series [2] (rabbit, in vivo, 100 mg/kg) is “marked change was not observed”. Further, the “histopathological findings at the site at which injury was created” value in series [3] (Example 1) and in series [3] (Example 2) was “matured chondrocytes were found extensively” in each case.
